# Tests used:
# TNBC cells [1] = assay: ER stress induction in TNBC cells (electron microscopy, western blots); assay type: cell-based
# Experimental: FIGS. 36A-H: ERX-41 induces ER stress in TNBC. (FIGS. 36A-C) Volcano plots show the relative effect of 4 h treatment of 1 μM ERX-41 compared to vehicle in MDA-MB-231 (FIG. 36A), BT-549 (FIG. 36B) TNBC and HMEC (FIG. 36C) cell lines. (FIG. 36D) Gene ontology analyses show the top regulated pathways. (FIG. 36E) Heatmap of the top ER stress and UPR genes in these three TNBC cell lines after 2 h and 4 h treatment with 1 μM ERX-41 treatment. […] (FIG. 36G) Time course of the effect of 1 μM ERX-41 on the mRNA expression of canonical ER stress genes, HSPAS and DDIT3 and UPR stress sensor-sXBP1 in MDA-MB-231, BT-549 and HMEC cells.
# (§1) The basal level of expression of endoplasmic reticulum stress and unfolded protein response correlates with TK41 activity (FIG. 28). Modulation of the level of these stress proteins affects the activity of TK41. Thus, the basal level of expression of endoplasmic reticulum stress and unfolded protein response proteins may serve as a biomarker to predict response to TK41. […] Without wishing to be bound by any particular theory, the mechanism of action of TK41 may operate comprise targeting either ER or TLX and inducing endoplasmic reticulum stress, subsequent apoptosis, and blocking autophagic fusion (FIG. 30).
# ERX-41 induces endoplasmic reticulum stress in TNBC. To understand the mechanism of action of ERX-41 in TNBC, the inventors performed unbiased RNA sequencing studies in three TNBC (SUM-159, MDA-MB-231, and BT549) and normal HMEC cell lines (FIGS. 36A-C). […] Heatmaps show the induction of ER stress and UPR genes in these three TNBC cell lines (FIG. 36E). Evaluation of ER stress induction was then performed with ultrastructural studies using electron microscopy (EM) studies.
# TNBC cells [2] = assay: De novo protein synthesis, puromycin labeled nascent proteins; assay type: cell-based; details: 4 h and 16 h
# From the text: Total protein is shown on right with coomassie blue staining.
# as §1
# HMEC cells = assay: Live cell imaging with SYTOX Green, HMEC; assay type: cell-based, human
# From the text: FIGS. 34A-C: Dose response curve of ERX-41 in multiple TNBC. cell lines using WST-1 assays (FIG. 34A) and CellTiter-Glo assays (FIG. 34B). […] Quantification of the number of dead cells over time seen with live cell imaging in MDAMB-231 and HMEC cells is shown.
# To evaluate the generalizability of the inventors' findings, they evaluated ERX-41 in a large number of TNBC and ERa-positive cell lines.
# [3] = Pharmacokinetic studies of ERX-41; assay type: in vivo, mice
# Experimental: FIGS. 35A-P: ERX-41 is potent against TNBC in vivo. (FIG. 35A) Following establishment of subcutaneous MDA-MB-231 xenograft tumors (200 mm^3), 10 mg/kg single dose ERX-41 was administered either by oral or intraperitoneal route. The tumor was harvested 0, 0, 5, 1, 5, 3, 6 and 24 h after drug administration and the drug levels assayed by LC-MS/MS and graphed. (FIGS. 35B-E) Following establishment of MDA-MB-231 xenografts in mammary fat pad in vivo (100 mm^3 size), daily administration of 10 mg/kg ERX-41 or vehicle control (N=8 each group) was initiated. Tumor volumes were measured using digital calipers and graphed (FIG. 35B). Tumor weights (FIG. 35C), body weights (FIG. 35D) and extirpated tumors (FIG. 35E) at end of study are also shown. (FIGS. 35F-H) Following establishment of D2A1 syngeneic xenografts in mammary fat pad in vivo (100 mm^3 size), daily administration of 10 mg/kg ERX-41 or vehicle control (N=8 each group) was initiated. Tumor volumes were measured using digital calipers and graphed (FIG. 35F) along with tumor weights (FIG. 35G) and body weights (FIG. 35H). (FIGS. 35I-P) Effect of ERX-41 on the growth (FIG. 351, FIG. 35K, FIG. 35M, FIG. 35O) and tumor weights (FIG. 35J, FIG. 35L, FIG. 35N, FIG. 35P) of four distinct TNBC PDXs compared to vehicle. *p<0.05. **p<0.01; ***p<0.001.
# Additionally, ERX-41 was detectable within 1.5 h in established subcutaneous MDA-MB-231 xenograft tumors after oral or intraperitoneal administration (FIG. 35A). […] ERX-41 decreased tumor growth, as shown by extirpated tumor sizes at the end of study (FIG. 35C and FIG. 35E). […] The inventors validated the activity of ERX-41 in four distinct TNBC PDXs established in the mammary fat pad (FIGS. 35I-P).
smiles,measurement,setting,value
CC(C)COc1cc(C(=O)Nc2ccc(C(=O)N[C@H]3CC[C@H](C)CC3)cc2OCC(C)C)ccc1NC(=O)c1ccc([N+](=O)[O-])c(OCCO)c1 [TK41],"induction of ER stress and UPR proteins (p-PERK, IRE1a, eiF2a, CHOP)","TNBC cells [1]; 1 μM, western blotting, TNBC cells",induces ER stress and downstream UPR pathways
same,induction of endoplasmic reticulum stress,TNBC cells [1]; TNBC MD-MBA-231 cells,induce endoplasmic reticulum stress
same,dilation of the ER by electron microscopy,"TNBC cells [1]; within 4 h of treatment, TNBC cells",induced dramatic dilation of the ER
same,de novo protein synthesis,TNBC cells [2],shuts down de novo protein synthesis
same,de novo protein synthesis,TNBC cells [2]; listed as TK-41,decreases global new protein synthesis
same,cell death in HMEC,HMEC cells,did not significantly induce cell death
same,oral bioavailability,"[3]; mouse, in vivo, po",orally bioavailable
same,time of peak detectable levels in the plasma,"[3]; oral, 10 mg/kg single dose",4 h
same,time until detectable in tumors,"[3]; subcutaneous MDA-MB-231 xenograft tumors, oral or intraperitoneal",≤ 1.5 h
